From PubChem BioAssay (NCI)
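Each compound was tested at five concentrations against cells in 96-well plates for 48 hours. TGI is the concentration that stops growth completely.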

How the values were obtained:
Assay in all cases: inhibition of tumour cell growth, NCI panel, 48 h
[1] = system: 786-0 renal
[2] = system: A498 renal
[3] = system: A549 NSCLC
[4] = system: ACHN renal
[5] = system: BT-549 breast
[6] = system: CAKI-1 renal
[7] = system: CCRF-CEM leukemia
[8] = system: COLO 205 colon
[9] = system: DU-145 prostate
[10] = system: EKVX NSCLC
[11] = system: HCC-2998 colon
[12] = system: HCT-116 colon
[13] = system: HCT-15 colon
[14] = system: HOP-62 NSCLC
[15] = system: HOP-92 NSCLC
[16] = system: HS 578T breast
[17] = system: HT29 colon
[18] = system: IGROV1 ovarian
[19] = system: K-562 leukemia
[20] = system: KM12 colon
[21] = system: LOX IMVI melanoma
[22] = system: M14 melanoma
[23] = system: MCF7 breast
[24] = system: MDA-MB-231 breast
[25] = system: MDA-MB-435
[26] = system: MDA-N
[27] = system: MOLT-4 leukemia
[28] = system: NCI-H226 lung
[29] = system: NCI-H23 lung
[30] = system: NCI-H522 lung
[31] = system: NCI/ADR-RES ovarian
[32] = system: OVCAR-3 ovarian
[33] = system: OVCAR-4 ovarian
[34] = system: OVCAR-5 ovarian
[35] = system: OVCAR-8 ovarian
[36] = system: PC-3 prostate
[37] = system: RPMI-8226 leukemia
[38] = system: SF-268 CNS
[39] = system: SF-295 CNS
[40] = system: SF-539 CNS
[41] = system: SK-MEL-2 melanoma
[42] = system: SK-MEL-28 melanoma
[43] = system: SK-MEL-5 melanoma
[44] = system: SK-OV-3 ovarian
[45] = system: SN12C renal
[46] = system: SNB-19 CNS
[47] = system: SR leukemia
[48] = system: SW-620 colon
[49] = system: T-47D breast
[50] = system: TK-10 renal
[51] = system: U251 CNS
[52] = system: UACC-257 melanoma
[53] = system: UACC-62 melanoma
[54] = system: UO-31 renal

Measured: TGI

CC(=O)N[C@@H](Cc1ccc(O)cn1)C(=O)NC1CCCCC1
> 100 µM: all assays above
